Experimental data: ChEMBL document CHEMBL1141856, “Iridoid glycosides of Leonurus persicus” (J Nat Prod, 1999)
Calls of active or inactive are those of the source. No cut-off for these calls is given here.

Test system: Staphylococcus epidermidis
Assay: Antimicrobial activity against Staphylococcus epidermidis at 50 ug/spot by agar overlay method
Format: functional, organism-based

## COc1cc(/C=C/C(=O)O[C@H]2[C@H](O[C@@H]3O[C@@H](C)[C@H](O)[C@@H](O)[C@H]3O)[C@@H](O)[C@H](OCCc3ccc(O)c(O)c3)O[C@@H]2CO)ccc1O
  Activity: Active
